According to patent USRE46698E1, “Use of cyclohexanol derivatives as antimicrobial active compounds” (MERCK PATENT GMBH, priority 2011, dated 2018):

What was measured:
[1] = test system: S. epidermidis (ATCC 12228); assay: Growth inhibition by optical density, Bioscreen C (Example 3); type: cell-based, Staphylococcus epidermidis; settings: 1st experiment; 1.0% sample in water/ethanol (12% of ethanol) diluted 1 to 2 with bacteria suspension; 37° C.; negative control 0.80
Experimental: For sample preparation, the substances being investigated are each dissolved or homogeneously dispersed in an amount of 1.0% in a water/ethanol mixture (12% of ethanol) and subsequently diluted with bacteria suspension in the ratio 1 to 2. S. epidermidis (ATCC 12228) is pre-incubated under aerobic conditions for 24 h at 35° C. on CASO agar (Merck 1.05458). A bacteria suspension having an optical density (OD) of about 1.0 is subsequently prepared in CASO broth (Merck 1.05459, double-concentrated) and diluted again 1:10 in CASO broth. 150 μl of freshly prepared sample are added to 150 μl of bacteria suspension per well. The optical density is determined over the course of time at 37° C. using a Bioscreen C™ analyser compared with the negative control (=vehicle without test substance). Compared with the negative control, reduced optical densities confirm growth-inhibiting substance actions
(§1) Result as optical density of the bacteria suspension after an exposure time of 20 hours: […]

[2] = Densities and viscosities, Ubbelohde viscometer, to estimate spreadability (Example 10); type: physicochemical; settings: 25° C.
Experimental: Measurement of the Dynamic Viscosities in Order to Estimate the Spreadability at 25° C. After measurement of the densities and kinematic viscosities using an Ubbelohde viscometer, the following dynamic viscosities arise: Since spreadabilities and viscosities of cosmetic emollients correlate well, good spreadabilities can be concluded from the viscosities determined.

[3] = Rancimate assay, antioxidative capacity (Example 1); settings: 0.1% w/w in soya oil; 120° C.; input of air 201/h
Experimental: The antioxidative capacity of substances I-9, I-10 and I-2 is determined in the so-called Rancimate assay. The comparative substances used are 4-t-butyl-1-cyclohexanol and tocopherol. The positive standard employed is BHT. The measurement parameter is the time duration (induction time) of the increase in the conductivity of unstabilised soya oil on exposure to air at elevated temperature. The longer the induction time, the greater the stabilising or antioxidant action. The following boundary conditions were maintained: input of air 201/h; temperature 120° C. and sample concentrations of 0.1% w/w each in soya oil. For each test substance, a relative antioxidation-protection factor is determined, which corresponds to the ratio of the induction times with and without test substance: […]

P. acnes (ATCC 6919) = assay: Growth inhibition by optical density, Bioscreen C (Example 4); type: cell-based, Propionibacterium acnes; settings: 1.0% sample in water/ethanol (12% of ethanol) diluted 1 to 2 with bacteria suspension; 37° C.; negative control 1.0
Experimental: (§2) For sample preparation, the substances being investigated are each dissolved or homogeneously dispersed in an amount of 1.0% in a water/ethanol mixture (12% of ethanol) and subsequently diluted with bacteria suspension in the ratio 1 to 2. P. acnes (ATCC 6919) is pre-incubated under anaerobic conditions for 48 h at 35° C. on RMC agar (Merck 1.05410). A bacteria suspension having an optical density (OD) of about 1.5 is subsequently prepared in RMC broth (Merck 1.05411, double-concentrated). 150 μl of freshly prepared sample and 100 μl of paraffin are added to 150 μl of bacteria suspension per well. The optical density is determined over the course of time at 37° C. using a Bioscreen C™ analyser compared with the negative control (=vehicle without test substance). Compared with the negative control, reduced optical densities confirm growth-inhibiting substance actions.
as §1

Malassezia furfur = assay: Antimicrobial action, microbe count (Example 6); type: cell-based; settings: conc. 1.0%, H2O, count t0 4.0 × 10^2
Experimental: as §2
(§3) For sample preparation, the substances being investigated are each dissolved or homogeneously dispersed in an amount of 1.0% in a water/ethanol mixture (12% of ethanol) (=sample). A bacteria suspension of S. epidermidis (ATCC 12228) having an optical density of 1.0 in CASO broth (Merck 1.05459) is diluted 1:10000 with CASO broth. 500 μl of sample are added to 500 μl of bacteria suspension, and the mixture is incubated at 35° C. for 24 h. After the incubation, the test batches are diluted to −6 in 10 unit steps, and 0.1 ml of each is plated-out on CASO agar (Merck 1.05458) and incubated at 35° C. for 24 h.
(§4) In order to determine the initial microbe count, 0.1 ml of the bacteria suspension used are plated-out on CASO agar (Merck 1.05458) and incubated at 35° C. for 24 h.
(§5) The colonies are subsequently counted, and the microbe count per ml is determined compared with the negative control (12% of ethanol in water).
(§6) The procedure corresponds to that described in Examples 4 and 5 using the microorganisms shown below. The concentrations indicated are the final use concentrations. In order to prepare the stock solution, double the final concentration were prepared in the solvent indicated. This was subsequently diluted 1:2 with the corresponding microbe suspension. In the case of Aspergillus brasiliensis, the microbe count determination was exceptionally carried out after 48 h.

[4] = test system: Staphylococcus epidermidis; assay: Antimicrobial action, microbe count (Example 6); type: cell-based; settings: conc. 0.5%, H2O (12% of ethanol), count t0 3.4 × 10^4
Experimental: as §2, §3, §4, §5, §6

Corynebacterium xerosis = assay: Antimicrobial action, microbe count (Example 6); type: cell-based; settings: conc. 0.5%, H2O (12% of ethanol), count t0 3.5 × 10^4
Experimental: as §2, §3, §4, §5, §6

Aspergillus brasiliensis = assay: Antimicrobial action, microbe count (Example 6); type: cell-based; settings: conc. 0.5%, H2O (12% of ethanol), count t0 2.0 × 10^4
Experimental: as §2, §3, §4, §5, §6

Pseudomonas aeruginosa = assay: Antimicrobial action, microbe count (Example 6); type: cell-based; settings: conc. 0.5%, H2O (12% of ethanol), count t0 6.8 × 10^4
Experimental: as §2, §3, §4, §5, §6

Propionibacterium acnes = assay: Antimicrobial action, microbe count (Example 6); type: cell-based; settings: conc. 0.5%, H2O (12% of ethanol), count t0 2.0 × 10^4
Experimental: as §2, §3, §4, §5, §6

Echerichia coli = assay: Antimicrobial action, microbe count (Example 6); type: cell-based; settings: conc. 0.5%, H2O (12% of ethanol), count t0 4.6 × 10^4
Experimental: as §2, §3, §4, §5, §6

Serratia marcescens = assay: Antimicrobial action, microbe count (Example 6); type: cell-based; settings: conc. 0.5%; for Δlog: t24 h
Experimental: as §2, §3, §4, §5, §6

Salmonella enterica = assay: Antimicrobial action, microbe count (Example 6); type: cell-based; settings: conc. 0.5%; for Δlog: t24 h
Experimental: as §2, §3, §4, §5, §6

[5] = H2O (12% of ethanol), count t0 6.8 × 10^4
[6] = H2O (12% of ethanol), count t0 6.0 × 10^4

Question: With `CCOC(=O)C1CCCCC1O` (stereo not shown) [Substance I-2] as the compound, how does the “OD20h, optical density of the bacteria suspension after 20 hours” value [1] read?
Answer: Its value is 0.30.

Question: What about the Density [2] of the same compound?
Answer: The Density was 1.0564 g/mL.

Question: And the “Dynamic viscosity (kinematic viscosity × density)” value [2]?
Answer: Its value is 16.4 mPas.

Question: And the Kinematic viscosity ([2]; Ubbelohde viscometer)?
Answer: Its Kinematic viscosity is 15.5 mm^2/s.

Question: What about the “Antioxidation-protection factor (ratio of the induction times with and without test substance)” value [3] of the same compound?
Answer: The value was 1.15.

Question: What about the “OD20h, optical density of the bacteria suspension after 20 hours” value (P. acnes (ATCC 6919)) of the same compound?
Answer: The value was 0.45.

Question: What about the “Microbe count t24 h” value (Malassezia furfur) of the same compound?
Answer: The value was 0.

Question: What about the Δlog (Malassezia furfur; t24 h) of the same compound?
Answer: Its Δlog is −2.60.

Question: What about the “Microbe count t24 h” value [4] of the same compound?
Answer: The value was 2.0 × 10^4.

Question: And the Δlog ([4]; t24 h)?
Answer: Its Δlog is −0.23.

Question: And the “Microbe count t24 h” value (Corynebacterium xerosis)?
Answer: The value was 0.

Question: What about the Δlog (Corynebacterium xerosis; t24 h) of the same compound?
Answer: Its Δlog is −4.54.

Question: And the Δlog (Aspergillus brasiliensis; count after 48 h)?
Answer: The Δlog was −0.30.

Question: And the “Microbe count t24 h” value (Aspergillus brasiliensis; count carried out after 48 h)?
Answer: The value was 1.0 × 10^4.

Question: And the “Microbe count t24 h” value (Pseudomonas aeruginosa)?
Answer: The value was 0.

Question: And the Δlog (Pseudomonas aeruginosa; t24 h)?
Answer: Its Δlog is −4.83.

Question: And the “Microbe count t24 h” value (Propionibacterium acnes)?
Answer: The value was 1.2 × 10^4.

Question: And the Δlog (Propionibacterium acnes; t24 h)?
Answer: Its Δlog is −0.22.

Question: What about the “Microbe count t24 h” value (Echerichia coli) of the same compound?
Answer: Its value is 1.8 × 10^3.

Question: And the Δlog (Echerichia coli; t24 h)?
Answer: Its Δlog is −1.41.

Question: What about the “Microbe count t24 h” value (Serratia marcescens; [5]) of the same compound?
Answer: Its value is 0.

Question: And the Δlog (Serratia marcescens; [5])?
Answer: The Δlog was −3.83.

Question: What about the “Microbe count t24 h” value (Serratia marcescens; H2O, count t0 2.9 × 10^5) of the same compound?
Answer: The value was 9.0 × 10^5.

Question: And the Δlog (Serratia marcescens; H2O, count t0 2.9 × 10^5)?
Answer: Its Δlog is “+0.49”.

Question: What about the “Microbe count t24 h” value (Salmonella enterica; [6]) of the same compound?
Answer: The value was 0.

Question: And the Δlog (Salmonella enterica; [6])?
Answer: The Δlog was −4.78.

Question: And the “Microbe count t24 h” value (Salmonella enterica; H2O, count t0 1.0 × 10^6)?
Answer: The value was 5.0 × 10^4.

Question: And the Δlog (Salmonella enterica; H2O, count t0 1.0 × 10^6)?
Answer: The Δlog was −1.30.
